Several values for one entry are separate records, joined by “and”; a condition that tells them apart may be missing. Equal entries are not always repeated. Toxic doses and inconclusive results are not listed. Cut-off read from the data, not from the text of the source: active = T/C of 150% or more; inactive = T/C below 125%.
Tested on: L1210 leukemia ip in BDF1 mice, survival T/C
Experiment: NCI In Vivo Anticancer Drug Screen. Data for tumor model L1210 Leukemia (intraperitoneal) in B6D2F1 (BDF1) mice
Conditions: endpoint: mean survival time, higher = longer survival
In short: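 Transplantable tumor model; survival measured in treated vs vehicle control mice. Value = treated/control.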

[1] = dose: 75.0 mg/kg/injection, schedule: Q01DX001 (ip), vehicle: saline
[2] = dose: 150.0 mg/kg/injection, schedule: Q01DX001 (ip), vehicle: saline
[3] = dose: 100.0 mg/kg/injection, schedule: Q01DX001 (ip), vehicle: saline
[4] = dose: 200.0 mg/kg/injection, schedule: Q01DX001 (ip), vehicle: saline
[5] = dose: 400.0 mg/kg/injection, schedule: Q01DX001 (ip), vehicle: saline
[6] = dose: 100.0 mg/kg/injection, schedule: Q01DX009 (ip), vehicle: Klucel (hydroxypropylcellulose) (HPC)
[7] = dose: 100.0 mg/kg/injection, schedule: Q04DX003 (ip), vehicle: Klucel (hydroxypropylcellulose) (HPC)
[8] = dose: 200.0 mg/kg/injection, schedule: Q01DX009 (ip), vehicle: Klucel (hydroxypropylcellulose) (HPC)
[9] = dose: 200.0 mg/kg/injection, schedule: Q04DX003 (ip), vehicle: Klucel (hydroxypropylcellulose) (HPC)
[10] = dose: 400.0 mg/kg/injection, schedule: Q01DX009 (ip), vehicle: Klucel (hydroxypropylcellulose) (HPC)
[11] = dose: 400.0 mg/kg/injection, schedule: Q04DX003 (ip), vehicle: Klucel (hydroxypropylcellulose) (HPC)
[12] = dose: 100.0 mg/kg/injection, schedule: Q01DX009 (ip), vehicle: saline with Tween-80
[13] = dose: 100.0 mg/kg/injection, schedule: Q04DX003 (ip), vehicle: saline with Tween-80
[14] = dose: 200.0 mg/kg/injection, schedule: Q01DX009 (ip), vehicle: saline with Tween-80
[15] = dose: 200.0 mg/kg/injection, schedule: Q04DX003 (ip), vehicle: saline with Tween-80

Measured: T/C

CCN(CC)C(N)=O
inactive: dose: 100.0 mg/kg/injection, schedule: Q01DX009 (ip), vehicle: saline 92 % of control | dose: 100.0 mg/kg/injection, schedule: Q04DX003 (ip), vehicle: saline 102 % of control | dose: 200.0 mg/kg/injection, schedule: Q01DX009 (ip), vehicle: saline 118 % of control | dose: 200.0 mg/kg/injection, schedule: Q04DX003 (ip), vehicle: saline 107 % of control | dose: 400.0 mg/kg/injection, schedule: Q01DX009 (ip), vehicle: saline 101 % of control | dose: 400.0 mg/kg/injection, schedule: Q04DX003 (ip), vehicle: saline 107 % of control

NN1CCCC1C(=O)O (stereo not given)
inactive: [1] 97 % of control | [2] 92 % of control

CCCCCCCCc1nc2c([nH]1)c(=O)n(C)c(=O)n2C
inactive: dose: 50.0 mg/kg/injection, schedule: Q01DX001 (ip), vehicle: saline 87 % of control | [3] 90 % of control | [4] 90 % of control | [5] 102 % of control

Cc1nnc(C)n1N
inactive: [3] 106 % of control | [4] 106 % of control | [5] 95 % of control

O=C1CCCC(=O)CCC1
inactive: dose: 50.0 mg/kg/injection, schedule: Q04DX002 (ip), vehicle: saline 93 % of control | dose: 100.0 mg/kg/injection, schedule: Q04DX002 (ip), vehicle: saline 93 % of control | dose: 200.0 mg/kg/injection, schedule: Q04DX002 (ip), vehicle: saline 104 % of control

Cc1nc2ccccc2c(=O)n1N
inactive: [3] 111 % of control | [4] 105 % of control

Cn1c(=O)cc(CNc2ccc(-c3ccccc3)cc2)c2ccccc21
inactive: [3] 92 % of control | [4] 90 % of control | [5] 88 % of control

CCOC(=O)c1cc(C(=O)OCC)c[n+](CCCl)c1
inactive: dose: 8.0 mg/kg/injection, schedule: Q01DX010 (ip), vehicle: other 104 % of control | dose: 16.0 mg/kg/injection, schedule: Q01DX010 (ip), vehicle: other 104 % of control | dose: 32.0 mg/kg/injection, schedule: Q01DX010 (ip), vehicle: other 111 % of control | dose: 64.0 mg/kg/injection, schedule: Q01DX010 (ip), vehicle: other 109 % of control | dose: 64.0 mg/kg/injection, schedule: Q01DX Z (ip), vehicle: other 105 % of control

Cc1cc(OCCO)ccc1Cl
inactive: dose: 100.0 mg/kg/injection, schedule: Q04DX002 (ip), vehicle: Klucel (hydroxypropylcellulose) (HPC) 108 % of control | dose: 200.0 mg/kg/injection, schedule: Q04DX002 (ip), vehicle: Klucel (hydroxypropylcellulose) (HPC) 108 % of control | dose: 400.0 mg/kg/injection, schedule: Q04DX002 (ip), vehicle: Klucel (hydroxypropylcellulose) (HPC) 108 % of control

COc1ccc(OC)c([N+](=O)[O-])c1
inactive: [3] 100 % of control | [6] 100 % of control | [7] 93 % of control | [4] 105 % of control | [8] 94 % of control | [9] 95 % of control | [5] 96 % of control | [10] 88 % of control | [11] 93 % of control

Cc1ccc(CNc2cccc([N+](=O)[O-])c2)cc1
inactive: [6] 98 % of control | [7] 98 % of control | [8] 93 % of control | [9] 96 % of control | [10] 102 % of control | [11] 101 % of control

CC1(C)CCC(C)(C)C2CC3CC4C(CC3CC21)C(C)(C)CCC4(C)C (stereo not given)
inactive: [3] 89 % of control | [4] 104 % of control | [5] 97 % of control

C=CCOCC(C)OC(=O)C(C)C (stereo not given)
inactive: [3] 107 % of control | [4] 94 % of control | [5] 90 % of control

O=C1C=C(Nc2ccc(S(=O)(=O)c3ccc(NC4=CC(=O)C(=O)c5ccccc54)cc3)cc2)c2ccccc2C1=O
inactive: [1] 93 % of control | [2] 96 % of control | dose: 300.0 mg/kg/injection, schedule: Q01DX001 (ip), vehicle: saline 96 % of control

CC(=O)N/N=C(/C)C(O)(c1ccccc1)c1ccccc1
inactive: [12] 95 % of control | [13] 100 % of control | [14] 92 % of control | [15] 101 % of control | dose: 400.0 mg/kg/injection, schedule: Q01DX009 (ip), vehicle: saline with Tween-80 97 % of control | dose: 400.0 mg/kg/injection, schedule: Q04DX003 (ip), vehicle: saline with Tween-80 101 % of control

CC(=O)Nc1c2ccccc2nc2c1c(C)c(C)c1ccccc12
inactive: dose: 50.0 mg/kg/injection, schedule: Q01DX001 (ip), vehicle: Klucel (hydroxypropylcellulose) (HPC) 87 % of control | dose: 100.0 mg/kg/injection, schedule: Q01DX001 (ip), vehicle: Klucel (hydroxypropylcellulose) (HPC) 89 % of control | dose: 200.0 mg/kg/injection, schedule: Q01DX001 (ip), vehicle: Klucel (hydroxypropylcellulose) (HPC) 94 % of control | dose: 400.0 mg/kg/injection, schedule: Q01DX001 (ip), vehicle: Klucel (hydroxypropylcellulose) (HPC) 91 % of control

COc1ccc(O)c(C(=O)c2cccc(OC)c2C#N)c1
inactive: dose: 25.0 mg/kg/injection, schedule: Q04DX003 (ip), vehicle: carboxymethylcellulose (CMC) 104 % of control | dose: 50.0 mg/kg/injection, schedule: Q01DX001 (ip), vehicle: carboxymethylcellulose (CMC) 103 % of control | dose: 50.0 mg/kg/injection, schedule: Q04DX003 (ip), vehicle: carboxymethylcellulose (CMC) 116 % of control | dose: 100.0 mg/kg/injection, schedule: Q01DX001 (ip), vehicle: carboxymethylcellulose (CMC) 97 % of control | dose: 100.0 mg/kg/injection, schedule: Q01DX009 (ip), vehicle: carboxymethylcellulose (CMC) 99 % of control and 100 % of control | dose: 100.0 mg/kg/injection, schedule: Q04DX002 (ip), vehicle: carboxymethylcellulose (CMC) 100 % of control and 91 % of control | dose: 100.0 mg/kg/injection, schedule: Q04DX003 (ip), vehicle: carboxymethylcellulose (CMC) 107 % of control and 86 % of control | dose: 200.0 mg/kg/injection, schedule: Q01DX001 (ip), vehicle: carboxymethylcellulose (CMC) 99 % of control | dose: 200.0 mg/kg/injection, schedule: Q01DX009 (ip), vehicle: carboxymethylcellulose (CMC) 97 % of control and 87 % of control | dose: 200.0 mg/kg/injection, schedule: Q04DX002 (ip), vehicle: carboxymethylcellulose (CMC) 104 % of control and 108 % of control | dose: 400.0 mg/kg/injection, schedule: Q01DX001 (ip), vehicle: carboxymethylcellulose (CMC) 99 % of control | dose: 400.0 mg/kg/injection, schedule: Q01DX009 (ip), vehicle: carboxymethylcellulose (CMC) 110 % of control and 86 % of control | dose: 400.0 mg/kg/injection, schedule: Q04DX002 (ip), vehicle: carboxymethylcellulose (CMC) 97 % of control and 90 % of control

NC(N)=N/N=C/c1ccc(F)cc1
inactive: dose: 15.0 mg/kg/injection, schedule: Q01DX Z (ip), vehicle: carboxymethylcellulose (CMC) 95 % of control | dose: 30.0 mg/kg/injection, schedule: Q01DX Z (ip), vehicle: carboxymethylcellulose (CMC) 101 % of control | dose: 60.0 mg/kg/injection, schedule: Q01DX Z (ip), vehicle: carboxymethylcellulose (CMC) 100 % of control and 109 % of control | dose: 120.0 mg/kg/injection, schedule: Q01DX Z (ip), vehicle: carboxymethylcellulose (CMC) 97 % of control

COc1cc2c(cc1OC(C)=O)C=CCCC2=O
inactive: dose: 100.0 mg/kg/injection, schedule: Q01DX009 (ip), vehicle: other 97 % of control | dose: 100.0 mg/kg/injection, schedule: Q04DX003 (ip), vehicle: other 105 % of control | dose: 200.0 mg/kg/injection, schedule: Q01DX009 (ip), vehicle: other 90 % of control | dose: 200.0 mg/kg/injection, schedule: Q04DX003 (ip), vehicle: other 105 % of control | dose: 400.0 mg/kg/injection, schedule: Q01DX009 (ip), vehicle: other 97 % of control | dose: 400.0 mg/kg/injection, schedule: Q04DX003 (ip), vehicle: other 104 % of control

CCCCCCCCCCCCCCNCCC(=O)O
inactive: dose: 37.5 mg/kg/injection, schedule: Q04DX003 (ip), vehicle: saline 102 % of control | dose: 75.0 mg/kg/injection, schedule: Q04DX003 (ip), vehicle: saline 101 % of control | dose: 150.0 mg/kg/injection, schedule: Q04DX003 (ip), vehicle: saline 102 % of control

CN(C)C(=S)NCc1ccccc1
inactive: [12] 95 % of control | [14] 101 % of control

CC(C)(C)CC(C)(C)c1ccc(OCCOc2ccc(NS(=O)(=O)c3ccc(N)c([N+](=O)[O-])c3)cc2)cc1
inactive: [13] 94 % of control | [15] 92 % of control

Reference: PubChem BioAssay AID248 (DTP/NCI, 2004)
